# In patent US12493040B2, “Cancer detection method using sense of smell of nematode” (HIROTSU BIO SCIENCE INC., priority 2013, dated 2025):
# System: RNAi-treated eri-1 (mg366) nematodes
# Assay: RNAi screening of olfactory receptor genes: chemotaxis assay of RNAi-treated nematodes to odorants
# Type: in vivo, Caenorhabditis elegans
# Conditions: repellent or high concentration of attractant
# Procedure, shortened: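 eri-1 (mg366) worms knocked down by feeding RNAi (Ahringer library) on IPTG/ampicillin NGM plates with E. coli for 4 days, then tested for chemotaxis, 30–50 worms per assay. Odorants at 1 μl of 10^−3 or 10^−4 dilution, or 1 and 5 μl undiluted. Hits scored by z score, thresholds ±1.96 (P<0.05) or ±0.96.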
compound,measurement,setting,value
CC(=O)C(C)=O [High Da],chemotaxis index,Control nematodes,−0.62 ± 0.012
same,chemotaxis index,srh-4 RNAi-treated nematodes,−0.81
same,chemotaxis index,srh-7 RNAi-treated nematodes,−0.83
same,chemotaxis index,srh-8 RNAi-treated nematodes,−0.63
same,chemotaxis index,srh-10 RNAi-treated nematodes,0.20
same,chemotaxis index,srh-11 RNAi-treated nematodes,−0.65
same,chemotaxis index,srh-15 RNAi-treated nematodes,−0.54
same,chemotaxis index,srh-16 RNAi-treated nematodes,−0.65
same,chemotaxis index,srh-18 RNAi-treated nematodes,−0.74
same,chemotaxis index,srh-19 RNAi-treated nematodes,−0.43
same,chemotaxis index,srh-22 RNAi-treated nematodes,−0.74
same,chemotaxis index,srh-23 RNAi-treated nematodes,−0.87
same,chemotaxis index,srh-24 RNAi-treated nematodes,−0.67
same,chemotaxis index,srh-25 RNAi-treated nematodes,−0.22
same,chemotaxis index,srh-27 RNAi-treated nematodes,−0.80
same,chemotaxis index,srh-28 RNAi-treated nematodes,−0.58
same,chemotaxis index,srh-36 RNAi-treated nematodes,−0.46
same,chemotaxis index,srh-37 RNAi-treated nematodes,−0.34
same,chemotaxis index,srh-39 RNAi-treated nematodes,−0.51
same,chemotaxis index,srh-40 RNAi-treated nematodes,−0.46
same,chemotaxis index,srh-41 RNAi-treated nematodes,−0.21
same,chemotaxis index,srh-44 RNAi-treated nematodes,−0.25
same,chemotaxis index,srh-45 RNAi-treated nematodes,−0.47
same,chemotaxis index,srh-46 RNAi-treated nematodes,−0.82
same,chemotaxis index,srh-48 RNAi-treated nematodes,−0.49
same,chemotaxis index,srh-49 RNAi-treated nematodes,−0.62
same,chemotaxis index,srh-50 RNAi-treated nematodes,−0.52
same,chemotaxis index,srh-51 RNAi-treated nematodes,−0.73
same,chemotaxis index,srh-52 RNAi-treated nematodes,−0.78
same,chemotaxis index,srh-55 RNAi-treated nematodes,−0.78
same,chemotaxis index,srh-59 RNAi-treated nematodes,−0.24
same,chemotaxis index,srh-60 RNAi-treated nematodes,−0.64
same,chemotaxis index,srh-61 RNAi-treated nematodes,−0.57
same,chemotaxis index,srh-67 RNAi-treated nematodes,−0.58
same,chemotaxis index,srh-68 RNAi-treated nematodes,−0.49
same,chemotaxis index,srh-69 RNAi-treated nematodes,−0.76
same,chemotaxis index,srh-70 RNAi-treated nematodes,−0.87
same,chemotaxis index,srh-71 RNAi-treated nematodes,−0.38
same,chemotaxis index,srh-72 RNAi-treated nematodes,−0.73
same,chemotaxis index,srh-74 RNAi-treated nematodes,−0.54
same,chemotaxis index,srh-75 RNAi-treated nematodes,−0.42
same,chemotaxis index,srh-77 RNAi-treated nematodes,−0.34
same,chemotaxis index,srh-79 RNAi-treated nematodes,0.35
same,chemotaxis index,srh-80 RNAi-treated nematodes,−0.48
same,chemotaxis index,srh-82 RNAi-treated nematodes,−0.36
same,chemotaxis index,srh-83 RNAi-treated nematodes,−0.23
same,chemotaxis index,srh-97 RNAi-treated nematodes,−0.42
same,chemotaxis index,srh-99 RNAi-treated nematodes,−0.24
same,chemotaxis index,srh-100 RNAi-treated nematodes,−0.75
same,chemotaxis index,srh-104 RNAi-treated nematodes,−0.39
same,chemotaxis index,srh-105 RNAi-treated nematodes,−0.58
same,chemotaxis index,srh-109 RNAi-treated nematodes,−0.59
same,chemotaxis index,srh-111 RNAi-treated nematodes,−0.35
same,chemotaxis index,srh-113 RNAi-treated nematodes,−0.62
same,chemotaxis index,srh-115 RNAi-treated nematodes,−0.57
same,chemotaxis index,srh-116 RNAi-treated nematodes,−0.36
same,chemotaxis index,srh-118 RNAi-treated nematodes,−0.64
same,chemotaxis index,srh-119 RNAi-treated nematodes,−0.78
same,chemotaxis index,srh-120 RNAi-treated nematodes,−0.66
same,chemotaxis index,srh-122 RNAi-treated nematodes,−0.53
same,chemotaxis index,srh-123 RNAi-treated nematodes,−0.55
same,chemotaxis index,srh-125 RNAi-treated nematodes,−0.59
same,chemotaxis index,srh-128 RNAi-treated nematodes,−0.48
same,chemotaxis index,srh-129 RNAi-treated nematodes,−0.69
same,chemotaxis index,srh-130 RNAi-treated nematodes,−0.37
same,chemotaxis index,srh-131 RNAi-treated nematodes,−0.34
same,chemotaxis index,srh-132 RNAi-treated nematodes,−0.83
same,chemotaxis index,srh-139 RNAi-treated nematodes,−0.42
same,chemotaxis index,srh-140 RNAi-treated nematodes,−0.46
same,chemotaxis index,srh-141 RNAi-treated nematodes,−0.77
same,chemotaxis index,srh-142 RNAi-treated nematodes,−0.49
same,chemotaxis index,srh-145 RNAi-treated nematodes,−0.85
same,chemotaxis index,srh-148 RNAi-treated nematodes,−0.69
same,chemotaxis index,srh-154 RNAi-treated nematodes,−0.65
same,chemotaxis index,srh-159 RNAi-treated nematodes,−0.45
same,chemotaxis index,srh-165 RNAi-treated nematodes,−0.79
same,chemotaxis index,srh-166 RNAi-treated nematodes,−0.83
same,chemotaxis index,srh-167 RNAi-treated nematodes,−0.89
same,chemotaxis index,srh-169 RNAi-treated nematodes,−0.92
same,chemotaxis index,srh-174 RNAi-treated nematodes,−0.69
same,chemotaxis index,srh-179 RNAi-treated nematodes,−0.87
same,chemotaxis index,srh-182 RNAi-treated nematodes,−0.86
same,chemotaxis index,srh-186 RNAi-treated nematodes,−0.80
same,chemotaxis index,srh-190 RNAi-treated nematodes,−0.91
same,chemotaxis index,srh-193 RNAi-treated nematodes,−0.53
same,chemotaxis index,srh-195 RNAi-treated nematodes,−0.80
same,chemotaxis index,srh-201 RNAi-treated nematodes,−0.95
same,chemotaxis index,srh-203 RNAi-treated nematodes,−0.94
same,chemotaxis index,srh-204 RNAi-treated nematodes,−0.89
same,chemotaxis index,srh-206 RNAi-treated nematodes,−0.79
same,chemotaxis index,srh-207 RNAi-treated nematodes,−0.87
same,chemotaxis index,srh-208 RNAi-treated nematodes,−0.76
same,chemotaxis index,srh-209 RNAi-treated nematodes,−0.70
same,chemotaxis index,srh-210 RNAi-treated nematodes,−0.56
same,chemotaxis index,srh-214 RNAi-treated nematodes,−0.60
same,chemotaxis index,srh-216 RNAi-treated nematodes,−0.61
same,chemotaxis index,srh-217 RNAi-treated nematodes,−0.50
same,chemotaxis index,srh-220 RNAi-treated nematodes,−0.42
same,chemotaxis index,srh-222 RNAi-treated nematodes,−0.66
same,chemotaxis index,srh-223 RNAi-treated nematodes,−0.50
